“Also recorded” adds a separate entry of the source.
Key:
Type in all cases: cell-based
[1] = system: RASSF1A; assay: Activation of tumor suppressor gene RASSF1A by KED compounds
Procedure: (§1) Anticancer effects and activation of a tumor suppressor gene, RASSF1A) KED-3-63-1, KED 3-63-2 and KED 3-81 were assessed.

[2] = system: DNA synthesis; assay: Inhibition of DNA synthesis / anticancer effects of KED compounds; settings: in the assay used (inhibition of DNA synthesis, FIGS. 7A-7D)
Procedure: FIGS. 7A-7D. FIGS. 7A-7D show the dose-dependent inhibition of DNA synthesis with KED compounds.
as §1

[3] = system: cyclin D1; assay: Cyclin D1 expression after KED compound; settings: as a result of RASSF1A induction
Procedure: as §1

SMILES | induction of RASSF1A [1] | anticancer effects [2] | cyclin D1 expression [3]
COc1ccc2c(c1)[nH]c1c(C)c3c(cc12)C=CC(C)(CCC=C(C)C)O3 (centres unmarked) [KED-3-63-1] | induced RASSF1A | have anti-cancer effects; also recorded: have anticancer effects | down-regulated
COc1ccc2c(c1)[nH]c1c(C)c(OCc3ccccc3)ccc12 [KED-3-63-2] |  | does not; also recorded: no anti-cancer effects | 
COc1ccc2c(c1)[nH]c1cc(OCc3ccccc3)c(C)cc12 [KED-3-81] |  | have anti-cancer effects; also recorded: have anticancer effects | 

Source: US20100130579A1, “CANCER THERAPY” (Georgetown University, priority 2006, published 2010)
